Measured values reported in US9334303B2, “Peptide compound useful for inhibiting amyloid plaque formation” (KIMONELLA VENTURES LTD., priority 2010, dated 2016).
Where a SMILES comes first, the peptide text is derived from it.

Tests used:
[1] = biological target: T1, immobilized peptide fragment corresponding to the region 1-16 of the amyloid-β peptide (Homo sapiens, UniProt P05067); assay: SPR binding (BIACORE T100), Example 3, in the absence of zinc; conditions: for Kd: BIACORE T100, no zinc, at least 99% L isomers, read-out: dissociation constant Kd (Example 3)
T1 construct: N-terminal acetyl cap (Ac); C-terminal amide cap (NH2)
T1 sequence (P05067 with tags, fused parts or gaps limits assumed): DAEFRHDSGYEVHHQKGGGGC
Source text: The binding tests described in Example 1 were reproduced, with the same materials, reactives and procedures except for the following significant differences: • the BIACORE apparatus applied was the BIACORE T100 apparatus. This BIACORE T100 apparatus produces more accurate results than the BIACORE 3000 because it includes a degasification system upon injecting the analyte on the sensor and because the method for detecting immobilized ligand/analyte intermolecular complexes on the CM5 chip is more accurate. • the tetrapeptides according to the invention used were purified to at least 99% in L isomers according to HPLC data, the D isomers were prevented from forming and/or removed during the synthesis. In Example 1, the tetrapeptides only included 98% of L isomers. • the concentrations of the tetrapeptides according to the invention applied were 50; 100; 200; 500; 1,000; 1,500 and 2,000 μM. • these experiments were conducted in the absence of zinc. • the surface of the CM5 chips provided a surface which gave a variation of response units (RU) of about 1,023 arbitrary units, with a control liquid sample.
the dissociation constant Kd being given by the formula Kd=koff/kon.

Aβ peptide (1-40) = biological target: T2, Aβ peptide (1-40) (Homo sapiens, UniProt P05067); assay: Aβ aggregation on SYNTHALOID SCREENING PLATE kit (fluorescence); format: biochemical; conditions: for IC50: 100 nM marked Aβ (1-40), 3 hours at room temperature, buffer with physiological Zn(II), read-out: inhibitory concentration IC50 of aggregation of the Aβ peptide; for effect of prolonged incubation on amyloid aggregates: incubation for at least 1 hour, 20, 40, 80, 100 and 150 μM
T2 construct: The complete β peptide 1-40 was used, marked by a fluorescent marker; purchased QUALITY CONTROLLED BIOCHEMICALS Inc. USA
T2 sequence (P05067 672-711 limits assumed): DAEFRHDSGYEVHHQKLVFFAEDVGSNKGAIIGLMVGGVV
Description: They were left to incubate for 3 hours at room temperature in the wells.
In certain wells, tetrapeptides AC-HAEE-NH2 and Ac-RADD-NH2 according to the invention, were introduced at different concentrations depending on the wells (0, 5, 10, 20, 40, 80, 100 and 150 μM), for checking the effect of tetrapeptides according to the invention on the aggregation phenomenon of Aβ peptides.
To do this, at the end of the incubation, the unbound proteins in the wells were removed with three washings, by using the buffer solution above. The amount of bound proteins in the form of aggregates, bound to the well, was measured by measuring the fluorescence intensity.

[2] = biological target: T3, immobilized peptide fragment corresponding to the 1-16 region of the amyloid-β peptide (Homo sapiens, UniProt P05067); assay: SPR binding (BIACORE 3000), Examples 1 and 2
T3 construct: N-terminal acetyl cap (Ac); C-terminal amide cap (NH2)
Source text: With this analysis, it is possible to calculate the dissociation constant Kd of the interaction of the peptide with the immobilized ligand, it being understood that the value of Kd is all the more smaller since the interaction with the ligand and therefore the stability of the formed interaction complex are high.
More specifically, in an SPR spectroscopy system, for example applying a biosensor from BIACORE, after immobilization of the ligand at the surface of a sensor of the chip type, in this case here the amyloid-β fragment, the analyte reagent is injected on said surface at a constant flow rate through systems of microfluidic channels. Polarized light emitted by a light source is reflected on the gold-covered surface of the chip, and then detected by a diode reader. According to the binding of the ligand and of the analyte molecule, the intensity of the reflected light is different. The variation in the response of the spectrometer (RU=Response unit) allows calculation of the dissociation constant of the interaction.
The chips of the biosensor came from GE Healthcare (USA). The SPR spectroscopy experiments were conducted with the BIACORE 3000 apparatus. The reagents for immobilizing the amyloid-β peptide fragment (EDC, NHS, PDEA and cysteine) were bought from GE Healthcare (USA). The buffer used for immobilizing the peptide ligand by formation of thiol bonds was 10 mM sodium acetate at pH 4.5. The regeneration buffer was an HBS buffer containing a medium with 10 mM HEPES and 3 mM EDTA, 0.005% of surfactant P20 and 150 mM NaCl at pH 7.4. […] All the buffers were filtered before use.
This peptide with 21 amino acids contains the 16 amino acids of the N-terminal end of the binding domain of the amyloid-β, i.e. [sequence] (SEQ. ID. NO.25), followed by 4 glycine amino acids and a cysteine C-Terminal end. Cysteine is necessary for immobilizing the ligand on the surface of the chip through a thiol bond according to the procedure of the supplier. 4 glycine amino acids therefore form a binding tetrapeptide (“linker”) between the chip and the ligand. Further, the thereby immobilized ligand has enough flexibility relatively to the surface, so as to validly mimic the interaction conditions between the tetrapeptide reagent and the ligand. This ligand was bound onto a CM5 chip of the biosensor, by following the standard procedure through a thiol bond under conditions described in the handbook of the sensor provided by the supplier GE Healthcare (USA).
The flow rate applied in all the steps was 5 μl/min. The carboxymethyl dextran matrix was activated by injecting a 1:1 mixture of 1-ethyl-3(3-dimethylaminopropyl)-carbodiimide (EDC) and of N-hydroxysuccinimide (NHS), i.e. 30 μl of EDC at 400 mM and NHS at 100 mM, followed by an injection of 80 mM PDEA (2-(2-pyridinyldithio)-ethane-amine) in solution in 0.1 M sodium borate at a pH of 8.5. The peptide ligand in solution in a sodium acetate buffer in an amount of 0.05 mg/ml was then injected. […] The control liquid was reacted with the surface of the chip according to the same procedure.
The surface of the chip was exposed for 330 seconds to the reagent buffer solution in order to track its binding. The surface of the chip was then regenerated by injecting a regeneration buffer (20 μL). The data of the control lane were subtracted from raw data of the lane corresponding to the immobilized reagent peptides.

Compound | koff [1] [s⁻¹] | kon [1] [M⁻¹ s⁻¹] | Kd [1] [µM] | IC50 (Aβ peptide (1-40)) [µM] | effect of prolonged incubation on amyloid aggregates (Aβ peptide (1-40)) | Kd ([2]; BIACORE 3000, peptides with Ra=Ac, Rb=NH2, 98% L isomers, read-out: dissociation constant Kd) [µM] | interactions of the ligand with the reagent at high concentrations of Zn(II) ions ([2]; Zn(II) 10 mM) | dissociation constant in the presence of physiological concentrations of Zn(II) ions ([2]; Zn(II) 100-400 μM) | interactions with the 1-16 domain of Aβ at higher concentrations of Zn(II) ions ([2]; Zn(II) of the order of 1 millimolar (mM)) | binding to the 1-16 domain of the amyloid-β in the presence or absence of Zn(II) ions ([2]; physiological Zn(II), micromolar levels (less than 500 μM))
CC(=O)N[C@@H](CCCCN)C(=O)N[C@@H](C)C(=O)N[C@@H](CCC(=O)O)C(=O)N[C@@H](CC(=O)O)C(N)=O [SEQ. ID. NO. 9, KAED] (Ac-KAED-NH2) | 0.019 ± 0.001 | 5.7 ± 0.9 | 1000 to 10000 |  |  |  |  |  |  | 
CC(=O)N[C@@H](Cc1c[nH]cn1)C(=O)N[C@@H](C)C(=O)N[C@@H](CC(=O)O)C(=O)N[C@@H](CC(=O)O)C(N)=O [SEQ. ID. NO. 1, HADD] (Ac-HADD-NH2) | 0.0104 ± 2e-05 | 3.2 ± 0.08 |  |  |  |  |  |  |  | 
CC(=O)N[C@@H](CCCCN)C(=O)N[C@@H](C)C(=O)N[C@@H](CC(=O)O)C(=O)N[C@@H](CCC(=O)O)C(N)=O [SEQ. ID. NO. 15, KADE] (Ac-KADE-NH2) | 0.0096 ± 0.0002 | 2.2 ± 0.1 | 1000 to 10000 |  |  |  |  |  |  | 
CC(=O)N[C@@H](CCCNC(=N)N)C(=O)N[C@@H](C)C(=O)N[C@@H](CC(=O)O)C(=O)N[C@@H](CC(=O)O)C(N)=O [SEQ. ID. NO. 5, Ac-RADD-NH2] (Ac-RADD-NH2) | 0.00024 ± 4e-05 | 18.5 |  | 20 | irreversible disaggregation |  |  |  |  | 
CC(=O)N[C@@H](CC(=O)O)C(=O)N[C@@H](CCC(=O)O)C(=O)N[C@@H](C)C(=O)N[C@@H](CCCNC(=N)N)C(N)=O [SEQ. ID. NO. 12, DEAR] (Ac-DEAR-NH2) | 0.00709 ± 9e-05 | 3.58 ± 0.08 | 1000 to 10000 |  |  |  |  |  |  | 
CC(=O)N[C@@H](CCCNC(=N)N)C(=O)N[C@@H](C)C(=O)N[C@@H](CCC(=O)O)C(=O)N[C@@H](CCC(=O)O)C(N)=O [SEQ. ID. NO. 23, RAEE] (Ac-RAEE-NH2) | 0.0112 ± 8e-05 | 1.5 ± 0.1 | 1000 to 10000 |  |  |  |  |  |  | 
CC(=O)N[C@@H](Cc1c[nH]cn1)C(=O)N[C@@H](C)C(=O)N[C@@H](CCC(=O)O)C(=O)N[C@@H](CCC(=O)O)C(N)=O [SEQ. ID. NO. 19, Ac-HAEE-NH2] (Ac-HAEE-NH2) | 3.5e-05 ± 8e-06 | 0.37 ± 0.05 |  | 20 | irreversible disaggregation | 0.022 | suppressed the interactions | practically unchanged | suppress the interactions | practically not altered
CC(=O)N[C@@H](CC(=O)O)C(=O)N[C@@H](CC(=O)O)C(=O)N[C@@H](C)C(=O)N[C@@H](CCCCN)C(N)=O [SEQ. ID. NO. 4, DDAK] (Ac-DDAK-NH2) | 0.0062 ± 0.0001 | 4.57 ± 0.09 | 1000 to 10000 |  |  |  |  |  |  | 
